Measured values reported in patent US4826814A, “Tripeptide derivatives” (Dainippon Pharmaceutical Co., Ltd., priority 1986, dated 1989).
Starred links: 1 amine or outer side, 2 acyl side, 3 side chain; linkers in the order of their positions; H or OH if unused. Non-standard residues stand in square brackets, D forms with d. Residues, ends and D or L forms follow the SMILES beside them. *: point of attachment. d(γGlu) = O=C(O)[C@@H](CCC(=O)[*:2])N[*:1]; Oic = O=C(O)[C@@H]1C[C@@H]2CCCC[C@@H]2N1; Nicotinoyl = O=C(c1cccnc1)*; Cbz = O=C(OCc1ccccc1)*

Assays:
[1] = target: T1, ACE preparation (rabbit lung) (Oryctolagus cuniculus, UniProt P12822); assay: In vitro ACE inhibitory activity (hippuryl-L-histidyl-L-leucine substrate); format: biochemical; conditions: 37° C., 30 minutes, pH 8.3
T1 construct: an ACE preparation (rabbit lung); from tissue; host or cells: rabbit lung
T1 sequence (P12822 34-1310): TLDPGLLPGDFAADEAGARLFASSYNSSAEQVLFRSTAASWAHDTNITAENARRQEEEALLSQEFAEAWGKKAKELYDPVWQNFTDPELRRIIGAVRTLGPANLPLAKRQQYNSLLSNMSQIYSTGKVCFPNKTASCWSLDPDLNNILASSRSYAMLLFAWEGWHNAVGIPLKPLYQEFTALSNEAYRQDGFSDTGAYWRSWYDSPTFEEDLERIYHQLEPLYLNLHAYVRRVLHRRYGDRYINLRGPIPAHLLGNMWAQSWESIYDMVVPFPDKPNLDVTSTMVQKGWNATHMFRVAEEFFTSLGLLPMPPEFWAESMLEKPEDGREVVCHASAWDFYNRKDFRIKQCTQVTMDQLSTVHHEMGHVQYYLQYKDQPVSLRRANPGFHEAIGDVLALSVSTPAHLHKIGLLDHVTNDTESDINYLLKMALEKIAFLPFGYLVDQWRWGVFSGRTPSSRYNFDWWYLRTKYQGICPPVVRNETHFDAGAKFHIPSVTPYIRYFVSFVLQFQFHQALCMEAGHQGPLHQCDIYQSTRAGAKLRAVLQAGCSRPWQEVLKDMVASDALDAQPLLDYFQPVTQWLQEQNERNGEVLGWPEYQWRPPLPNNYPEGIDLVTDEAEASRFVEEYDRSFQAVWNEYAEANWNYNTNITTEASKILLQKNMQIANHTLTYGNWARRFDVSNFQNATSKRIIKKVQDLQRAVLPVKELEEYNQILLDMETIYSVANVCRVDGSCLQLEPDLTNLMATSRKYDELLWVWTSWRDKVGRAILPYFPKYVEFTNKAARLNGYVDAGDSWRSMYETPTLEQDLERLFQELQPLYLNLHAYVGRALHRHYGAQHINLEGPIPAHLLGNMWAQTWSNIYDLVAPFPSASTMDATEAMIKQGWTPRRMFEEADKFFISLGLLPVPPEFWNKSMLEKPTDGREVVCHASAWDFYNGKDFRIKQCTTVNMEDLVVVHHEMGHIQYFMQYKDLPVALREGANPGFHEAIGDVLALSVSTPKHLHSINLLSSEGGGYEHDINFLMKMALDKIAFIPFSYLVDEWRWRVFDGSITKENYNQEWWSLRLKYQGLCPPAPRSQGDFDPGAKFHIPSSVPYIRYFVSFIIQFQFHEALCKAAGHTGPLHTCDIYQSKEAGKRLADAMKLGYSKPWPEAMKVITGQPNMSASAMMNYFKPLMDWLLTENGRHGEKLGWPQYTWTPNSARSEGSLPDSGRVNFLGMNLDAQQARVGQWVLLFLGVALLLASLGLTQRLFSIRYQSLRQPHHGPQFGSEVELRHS
Method: The assay medium contained an ACE preparation (rabbit lung), synthetic substrate (hippuryl-L-histidyl-L-leucine 5 mM), NaCl (300 mM) and phosphate buffer (100 mM, pH 8.3). It was mixed to a final volume of 0.300 ml and incubated at 37° C. for 30 minutes in the presence or absence of test compounds. After the reaction was terminated by adding 300 μl of 1N HCl, hippuric acid formed was extracted with 2 volume of ethyl acetate. After ethyl acetate was evaporated and distilled water was added, the hippuric acid was determined from its absorbance at 228 nm by spectrophotometer (Hitachi 100-41).
The degree of ACE inhibition was calculated from activities with and without test compounds. The IC50 value (molar concentration required for the 50% inhibition of ACE activity) was obtained from a dose-inhibition curve.

[2] = target: angiotensin converting enzyme (ACE) (Homo sapiens, UniProt P12821); conditions: stated by the publication of Ksander et al.; cited from earlier work
[3] = tested on: renal hypertensive rats; assay: Antihypertensive activity after single oral administration in two-kidney Goldblatt type renal hypertensive rats (tail-cuff blood pressure); format: in vivo, rat; conditions: for antihypertensive action after oral administration: in vivo test with rats; for Charge in pressure at 9 hours administration: blood pressure, renal hypertensive rats, single oral administration
From the text: Male Sprague Dawley rats (5 weeks old) were subjected to constriction of the left renal artery with a silver clip (internal diameter: 0.22 mm) under light ether anesthesia. The right kidney and renal artery were left intact. About 6-10 weeks after clipping, rats showing a blood pressure above 180 mmHg were used. These treated rats are named two-kidney Goldblatt type renal hypertensive rats and considered as a typical model of reninangiotensin dependent hypertension.
The blood pressure was measured by a tail-cuff method using a programmed electro-sphygmomanometer (PE-300, Narco Biosystem, U. S. A.) after warming at 38° C. for 10 minutes in heating box.
The antihypertensive activity of test compounds was evaluated after single oral administration in renal hypertensive rats (3-5 rats/group).

[4] = tested on: Male STD-ddy strain mice; assay: Toxicity: oral LD50 in mice; format: in vivo
From the text: Male STD-ddy strain mice weighing about 22 to 25 g were used.

Chain of angiotensin converting enzyme (ACE) (P12821 30-1306, species assumed): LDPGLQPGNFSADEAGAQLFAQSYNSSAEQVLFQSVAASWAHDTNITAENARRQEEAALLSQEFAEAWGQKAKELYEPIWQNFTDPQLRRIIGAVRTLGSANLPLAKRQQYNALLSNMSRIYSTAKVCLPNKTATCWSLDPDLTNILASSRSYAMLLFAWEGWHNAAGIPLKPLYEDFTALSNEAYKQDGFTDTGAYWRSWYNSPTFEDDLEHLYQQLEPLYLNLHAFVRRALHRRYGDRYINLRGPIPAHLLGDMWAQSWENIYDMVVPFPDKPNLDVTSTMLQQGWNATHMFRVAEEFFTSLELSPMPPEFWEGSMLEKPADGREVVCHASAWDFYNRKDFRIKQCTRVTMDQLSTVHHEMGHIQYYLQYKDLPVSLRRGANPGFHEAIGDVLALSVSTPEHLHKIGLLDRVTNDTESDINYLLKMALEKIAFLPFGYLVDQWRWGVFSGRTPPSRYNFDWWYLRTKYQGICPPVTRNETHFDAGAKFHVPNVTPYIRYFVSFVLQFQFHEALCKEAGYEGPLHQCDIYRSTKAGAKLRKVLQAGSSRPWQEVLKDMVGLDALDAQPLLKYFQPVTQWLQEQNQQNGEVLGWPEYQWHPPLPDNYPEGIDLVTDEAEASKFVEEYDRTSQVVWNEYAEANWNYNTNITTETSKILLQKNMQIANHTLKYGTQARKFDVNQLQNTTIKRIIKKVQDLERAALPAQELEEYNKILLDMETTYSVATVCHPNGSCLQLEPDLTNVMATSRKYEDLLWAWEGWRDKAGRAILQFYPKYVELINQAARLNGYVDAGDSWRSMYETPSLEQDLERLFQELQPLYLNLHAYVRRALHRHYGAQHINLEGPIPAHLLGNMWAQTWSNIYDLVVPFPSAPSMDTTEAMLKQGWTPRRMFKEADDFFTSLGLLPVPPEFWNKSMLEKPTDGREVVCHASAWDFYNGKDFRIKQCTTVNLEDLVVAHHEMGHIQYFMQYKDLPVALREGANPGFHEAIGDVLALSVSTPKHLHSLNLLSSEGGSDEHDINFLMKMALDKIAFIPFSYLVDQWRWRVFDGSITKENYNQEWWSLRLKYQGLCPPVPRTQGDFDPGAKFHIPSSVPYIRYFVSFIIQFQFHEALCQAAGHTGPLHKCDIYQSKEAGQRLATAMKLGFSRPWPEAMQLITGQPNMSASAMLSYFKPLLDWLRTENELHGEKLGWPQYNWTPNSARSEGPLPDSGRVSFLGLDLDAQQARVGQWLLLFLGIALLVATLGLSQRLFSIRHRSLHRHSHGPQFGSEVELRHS

NCCCC[C@H](N)C(=O)N[C@H](CCC(=O)N1c2ccccc2C[C@H]1C(=O)O)C(=O)O [1-(L-lysyl-γ-D-glutamyl)indoline-2(S)carboxylic acid, reference compound]
IC50 [1]: 18.8 nM
in vitro inhibition of ACE [2]: show in vitro inhibition of ACE
antihypertensive action after oral administration [3]: do not show any significant antihypertensive action

O=C(NCCCC[C@H](NC(=O)OCc1ccccc1)C(=O)N[C@H](CCC(=O)N1c2ccccc2C[C@H]1C(=O)O)C(=O)O)OCc1ccccc1 [1-(N^2,N^6dibenzyloxycarbonyl-L-lysyl-γ-D-glutamyl)indoline-2(S)carboxylic acid, reference compound]
in vitro inhibition of ACE [2]: show in vitro inhibition of ACE
Charge in pressure at 9 hours administration ([3]; dose of 30 mg/kg): -2
antihypertensive action after oral administration [3]: do not show any significant antihypertensive action

NCCCC[C@H](NC(=O)OCc1ccccc1)C(=O)N[C@H](CCC(=O)N1[C@H](C(=O)O)C[C@@H]2CCCC[C@@H]21)C(=O)O [Example 11, (2S,3aS,7aS)-1-(N^2 -Benzyloxycarboxyl-L-lysyl-gamma-D-glutamyl)octahydro-1H-indole-2-carboxylic acid] (Cbz-Lys-[d(γGlu)]-[Oic]-OH)
Charge in pressure at 9 hours administration ([3]; dose of 10 mg/kg): -37

NCCCC[C@H](NC(=O)c1cccnc1)C(=O)N[C@H](CCC(=O)N1[C@H](C(=O)O)C[C@@H]2CCCC[C@@H]21)C(=O)O [Example 15, (2S,3aS,7aS)-1-(N^2 -Nicotinoyl-L-lysyl-gamma-D-glutamyl)octahydro-1H-indole-2-carboxylic acid] (Nicotinoyl-Lys-[d(γGlu)]-[Oic]-OH)
oral LD50 [4]: more than 3,000 mg per kilogram of body weight
IC50 [1]: 6.4 nM

NCCCC[C@H](NC(=O)C1CCC1)C(=O)N[C@H](CCC(=O)N1[C@H](C(=O)O)C[C@@H]2CCCC[C@@H]21)C(=O)O [Example 18, (2S,3aS,7aS)-1-(N^2 -Cyclobutanecarbonyl-L-lysl-gamma-D-glutamyl)octahydro-1H-indole-2-carboxylic acid]
Charge in pressure at 9 hours administration ([3]; dose of 10 mg/kg): -42

NCCCC[C@H](NC(=O)c1ccncc1)C(=O)N[C@H](CCC(=O)N1[C@H](C(=O)O)C[C@@H]2CCCC[C@@H]21)C(=O)O [Example 29, (2S,3aS,7aS)-1-(N^2 -Isonicotinoyl-L-lysyl-gamma-D-glutamyl)octoahydro-1H-indole-2-carboxylic acid]
Charge in pressure at 9 hours administration ([3]; dose of 10 mg/kg): -38

NCCCC[C@H](NC(=O)OC1CCCC1)C(=O)N[C@H](CCC(=O)N1[C@H](C(=O)O)C[C@@H]2CCCC[C@@H]21)C(=O)O [Example 30, (2S,3aS,7aS)-1-(N^2 -Cyclopentyloxycarbonyl-L-lysyl-gamma-D-glytamyl)octahydro-1H-indole-2-carboxylic acid]
Charge in pressure at 9 hours administration ([3]; dose of 10 mg/kg): -38

NCCCC[C@H](NC(=O)OCCc1ccccn1)C(=O)N[C@H](CCC(=O)N1c2ccccc2C[C@H]1C(=O)O)C(=O)O [Example 38, 1-[N^2-(2-Pyridineethoxycarbonyl)-L-lysyl-gamma-D-glutamyl]indoline-2(S)-carboxylic acid]
Charge in pressure at 9 hours administration ([3]; dose of 10 mg/kg): -27

NCCCC[C@H](NC(=O)c1ccc(O)cc1)C(=O)N[C@H](CCC(=O)N1[C@H](C(=O)O)C[C@@H]2CCCC[C@@H]21)C(=O)O [Example 51, (2S,3aS,7aS)-1-[N^2-(4-Hydroxybenzoyl)-L-lysyl-gamma-D-glutamyl)octahydro-1H-indole-2-carboxylic acid]
oral LD50 [4]: more than 3,000 mg per kilogram of body weight
IC50 [1]: 5.2 nM

NCCCC[C@H](NC(=O)[C@@H]1Cc2ccccc2N1)C(=O)N[C@H](CCC(=O)N1[C@H](C(=O)O)C[C@@H]2CCCC[C@@H]21)C(=O)O [Example 56, (2S,3aS,7aS)-1-[N^2-(Indoline-2(S)-carbonyl)-L-lysyl-gamma-D-glutamyl]octahydro-1H-indole-2-carboxylic acid]
IC50 [1]: 8.2 nM

NCCCC[C@H](NC(=O)c1cnccn1)C(=O)N[C@H](CCC(=O)N1c2ccccc2C[C@H]1C(=O)O)C(=O)O [Example 68, 1-(N^2 -Pyrazinoyl-L-lysyl-gamma-D-glutamyl)indoline-2(S)-carboxylic acid]
IC50 [1]: 16 nM

NCCCC[C@H](NC(=O)c1cccnc1)C(=O)N[C@H](CCC(=O)N1[C@H](C(=O)O)C[C@@H]2CCCC[C@@H]21)C(=O)O [Example 69, Monosodium (2S,3aS,7aS)-1-(N^2-nicotinoyl-L-lysyl-gamma-D-glutamyl)octahydro-1H-indole-2-carboxylate] (Nicotinoyl-Lys-[d(γGlu)]-[Oic]-OH)
IC50 [1]: 7.8 nM

COc1ccccc1C(=O)N[C@@H](CCCCN)C(=O)N[C@H](CCC(=O)N1[C@H](C(=O)O)C[C@@H]2CCCC[C@@H]21)C(=O)O [Example 70, (2S,3aS,7aS)-1-[N^2-(2-Methoxybenzoyl)-L-lysyl-gamma-D-glutamyl]octahydro-1H-indole-2-carboxylic acid]
IC50 [1]: 5.4 nM

NCCCC[C@H](NC(=O)C1CCCCC1)C(=O)N[C@H](CCC(=O)N1c2ccccc2C[C@H]1C(=O)O)C(=O)O [Example 71, 1-(N^2 -Cyclohexylcarbonyl-L-lysyl-gamma-D-glutamyl)indoline-2(S)-carboxylic acid]
IC50 [1]: 27 nM

NCCCC[C@H](NC(=O)OCc1ccc2c(c1)OCO2)C(=O)N[C@H](CCC(=O)N1c2ccccc2C[C@H]1C(=O)O)C(=O)O [Example 74, 1-[N^2-(3,4-Methylenedioxybenzyloxycarbonyl)-L-lysyl-gamma-D-glutamyl]indoline-2(S)-carboxylic acid]
IC50 [1]: 6.6 nM

NCCC[S+]([O-])C[C@H](NC(=O)OCc1ccccc1)C(=O)N[C@H](CCC(=O)N1[C@H](C(=O)O)C[C@@H]2CCCC[C@@H]21)C(=O)O (stereo partly drawn) [Example 76, (2S,3aS,7aS)-1-[N-Benzyloxycarbonyl-S-(3-aminopropyl)-L-cysteinyl-gamma-D-glutamyl]octahydro-1H-indole-2-carboxylic acid sulfoxide]
Charge in pressure at 9 hours administration ([3]; dose of 10 mg/kg): -31
